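48-hour exposure; five concentrations; linearly interpolated endpoints. TGI: total growth inhibition.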
Key:
Assay in all cases: NCI tumour cell line growth inhibition, 48 h
786-0 renal = test system: 786-0 renal
A498 renal = test system: A498 renal
A549 NSCLC = test system: A549 NSCLC
ACHN renal = test system: ACHN renal
CAKI-1 renal = test system: CAKI-1 renal
CCRF-CEM leukemia = test system: CCRF-CEM leukemia
COLO 205 colon = test system: COLO 205 colon
DLD-1 colon = test system: DLD-1 colon
DMS 114 small cell lung = test system: DMS 114 small cell lung
DMS 273 small cell lung = test system: DMS 273 small cell lung
HCC-2998 colon = test system: HCC-2998 colon
HCT-116 colon = test system: HCT-116 colon
HCT-15 colon = test system: HCT-15 colon
HL-60(TB) leukemia = test system: HL-60(TB) leukemia
HOP-18 NSCLC = test system: HOP-18 NSCLC
HOP-62 NSCLC = test system: HOP-62 NSCLC
HOP-92 NSCLC = test system: HOP-92 NSCLC
HT29 colon = test system: HT29 colon
IGROV1 ovarian = test system: IGROV1 ovarian
K-562 leukemia = test system: K-562 leukemia
KM20L2 colon = test system: KM20L2 colon
LOX IMVI melanoma = test system: LOX IMVI melanoma
LXFL 529 NSCLC = test system: LXFL 529 NSCLC
M14 melanoma = test system: M14 melanoma
M19-MEL melanoma = test system: M19-MEL melanoma
MALME-3M melanoma = test system: MALME-3M melanoma
MOLT-4 leukemia = test system: MOLT-4 leukemia
NCI-H226 lung = test system: NCI-H226 lung
NCI-H23 lung = test system: NCI-H23 lung
NCI-H460 lung = test system: NCI-H460 lung
OVCAR-3 ovarian = test system: OVCAR-3 ovarian
OVCAR-4 ovarian = test system: OVCAR-4 ovarian
OVCAR-5 ovarian = test system: OVCAR-5 ovarian
RPMI-8226 leukemia = test system: RPMI-8226 leukemia
SF-268 CNS = test system: SF-268 CNS
SF-295 CNS = test system: SF-295 CNS
SK-MEL-28 melanoma = test system: SK-MEL-28 melanoma
SK-MEL-5 melanoma = test system: SK-MEL-5 melanoma
SK-OV-3 ovarian = test system: SK-OV-3 ovarian
SN12C renal = test system: SN12C renal
SNB-19 CNS = test system: SNB-19 CNS
SR leukemia = test system: SR leukemia
SW-620 colon = test system: SW-620 colon
U251 CNS = test system: U251 CNS
UACC-257 melanoma = test system: UACC-257 melanoma
UACC-62 melanoma = test system: UACC-62 melanoma
UO-31 renal = test system: UO-31 renal
EKVX NSCLC = test system: EKVX NSCLC
KM12 colon = test system: KM12 colon
OVCAR-8 ovarian = test system: OVCAR-8 ovarian
SF-539 CNS = test system: SF-539 CNS
SK-MEL-2 melanoma = test system: SK-MEL-2 melanoma
SNB-75 CNS = test system: SNB-75 CNS
SNB-78 CNS = test system: SNB-78 CNS
TK-10 renal = test system: TK-10 renal
XF 498 CNS = test system: XF 498 CNS
NCI-H522 lung = test system: NCI-H522 lung
RXF 393 renal = test system: RXF 393 renal
RXF-631 renal = test system: RXF-631 renal

`CCN(CC)CCCCC1CCN(CC(=O)N2CC(C)C(=O)Nc3ccccc32)CC1` (stereo not drawn) showed a TGI (786-0 renal) greater than 100 µM, a TGI (A498 renal) greater than 100 µM and a TGI (A549 NSCLC) greater than 100 µM. For the same compound, the TGI (ACHN renal) was greater than 100 µM, the TGI (CAKI-1 renal) was greater than 100 µM and the TGI (CCRF-CEM leukemia) was greater than 100 µM. The TGI (COLO 205 colon) was greater than 100 µM, the TGI (DLD-1 colon) was greater than 100 µM and the TGI (DMS 114 small cell lung) was greater than 100 µM. The TGI (DMS 273 small cell lung) was greater than 100 µM, the TGI (HCC-2998 colon) was greater than 100 µM and the TGI (HCT-116 colon) was greater than 100 µM. The TGI (HCT-15 colon) was greater than 100 µM, the TGI (HL-60(TB) leukemia) was greater than 100 µM and the TGI (HOP-18 NSCLC) was greater than 100 µM. It also gave a TGI (HOP-62 NSCLC) greater than 100 µM, a TGI (HOP-92 NSCLC) greater than 100 µM and a TGI (HT29 colon) greater than 100 µM. The TGI (IGROV1 ovarian) was greater than 100 µM, the TGI (K-562 leukemia) was greater than 100 µM and the TGI (KM20L2 colon) was greater than 100 µM. It also gave a TGI (LOX IMVI melanoma) greater than 100 µM, a TGI (LXFL 529 NSCLC) greater than 100 µM and a TGI (M14 melanoma) greater than 100 µM. For the same compound, the TGI (M19-MEL melanoma) was greater than 100 µM, the TGI (MALME-3M melanoma) was greater than 100 µM and the TGI (MOLT-4 leukemia) was greater than 100 µM. The TGI (NCI-H226 lung) was greater than 100 µM, the TGI (NCI-H23 lung) was greater than 100 µM and the TGI (NCI-H460 lung) was greater than 100 µM. The TGI (OVCAR-3 ovarian) was greater than 100 µM, the TGI (OVCAR-4 ovarian) was greater than 100 µM and the TGI (OVCAR-5 ovarian) was greater than 100 µM. It also gave a TGI (RPMI-8226 leukemia) greater than 100 µM, a TGI (SF-268 CNS) greater than 100 µM and a TGI (SF-295 CNS) greater than 100 µM. For the same compound, the TGI (SK-MEL-28 melanoma) was greater than 100 µM, the TGI (SK-MEL-5 melanoma) was greater than 100 µM and the TGI (SK-OV-3 ovarian) was greater than 100 µM. The TGI (SN12C renal) was greater than 100 µM, the TGI (SNB-19 CNS) was greater than 100 µM and the TGI (SR leukemia) was greater than 100 µM. The TGI (SW-620 colon) was greater than 100 µM, the TGI (U251 CNS) was greater than 100 µM and the TGI (UACC-257 melanoma) was greater than 100 µM. The TGI (UACC-62 melanoma) was greater than 100 µM and the TGI (UO-31 renal) was greater than 100 µM.
For `Cc1cc2nc3c(=O)n(C)c(=O)nc-3n(-c3ccc(Cl)cc3)c2cc1C`, the TGI (786-0 renal) was 43.3 µM, the TGI (A498 renal) was 89.8 µM and the TGI (A549 NSCLC) was 16.4 µM. The TGI (ACHN renal) was 24.7 µM, the TGI (CAKI-1 renal) was 48.8 µM and the TGI (CCRF-CEM leukemia) was 45.4 µM. The TGI (COLO 205 colon) was 9.76 µM, the TGI (DLD-1 colon) was 42.1 µM and the TGI (DMS 114 small cell lung) was 13.7 µM. The TGI (DMS 273 small cell lung) was 20.6 µM, the TGI (EKVX NSCLC) was 43.9 µM and the TGI (HCC-2998 colon) was 20.4 µM. For the same compound, the TGI (HCT-116 colon) was 33.6 µM, the TGI (HCT-15 colon) was 21.9 µM and the TGI (HL-60(TB) leukemia) was 24.3 µM. It also gave a TGI (HOP-18 NSCLC) of 19.9 µM, a TGI (HOP-62 NSCLC) of 65.1 µM and a TGI (HOP-92 NSCLC) of 34 µM. For the same compound, the TGI (HT29 colon) was 16.1 µM, the TGI (IGROV1 ovarian) was 38.8 µM and the TGI (K-562 leukemia) was 34.7 µM. It also gave a TGI (KM12 colon) greater than 100 µM, a TGI (KM20L2 colon) of 26.1 µM and a TGI (LXFL 529 NSCLC) of 27.5 µM. It also gave a TGI (M14 melanoma) of 13.9 µM, a TGI (M19-MEL melanoma) of 5.74 µM and a TGI (MALME-3M melanoma) of 22.3 µM. The TGI (MOLT-4 leukemia) was 32.8 µM, the TGI (NCI-H226 lung) was 37.6 µM and the TGI (NCI-H23 lung) was 26.2 µM. For the same compound, the TGI (NCI-H460 lung) was 10.6 µM, the TGI (OVCAR-3 ovarian) was 8.81 µM and the TGI (OVCAR-4 ovarian) was 19.8 µM. For the same compound, the TGI (OVCAR-5 ovarian) was 32.6 µM, the TGI (OVCAR-8 ovarian) was 43.7 µM and the TGI (RPMI-8226 leukemia) was 26.4 µM. It also gave a TGI (SF-268 CNS) of 36.7 µM, a TGI (SF-295 CNS) of 26.1 µM and a TGI (SF-539 CNS) of 25.4 µM. The TGI (SK-MEL-2 melanoma) was 34.9 µM, the TGI (SK-MEL-28 melanoma) was 33.4 µM and the TGI (SK-MEL-5 melanoma) was 4.14 µM. For the same compound, the TGI (SK-OV-3 ovarian) was 67.4 µM, the TGI (SN12C renal) was 18.6 µM and the TGI (SNB-19 CNS) was 47 µM. For the same compound, the TGI (SNB-75 CNS) was 24.4 µM, the TGI (SNB-78 CNS) was 45.9 µM and the TGI (SW-620 colon) was 20.5 µM. It also gave a TGI (TK-10 renal) of 92 µM, a TGI (U251 CNS) of 29.9 µM and a TGI (UACC-257 melanoma) of 20 µM. For the same compound, the TGI (UACC-62 melanoma) was 10.6 µM, the TGI (UO-31 renal) was 52.6 µM and the TGI (XF 498 CNS) was 7.14 µM.
For `O=[N+]([O-])c1c(/C=N/Nc2ccccc2)oc(-c2ccc3c(c2)OCO3)c1-c1ccc2c(c1)OCO2`, the TGI (786-0 renal) was greater than 100 µM, the TGI (A549 NSCLC) was greater than 100 µM and the TGI (ACHN renal) was greater than 100 µM. For the same compound, the TGI (CAKI-1 renal) was greater than 100 µM, the TGI (COLO 205 colon) was greater than 100 µM and the TGI (DLD-1 colon) was greater than 100 µM. For the same compound, the TGI (DMS 114 small cell lung) was greater than 100 µM, the TGI (EKVX NSCLC) was greater than 100 µM and the TGI (HCC-2998 colon) was 34.3 µM. The TGI (HCT-116 colon) was greater than 100 µM, the TGI (HL-60(TB) leukemia) was 33.5 µM and the TGI (HOP-62 NSCLC) was greater than 100 µM. For the same compound, the TGI (HOP-92 NSCLC) was greater than 100 µM, the TGI (HT29 colon) was greater than 100 µM and the TGI (IGROV1 ovarian) was greater than 100 µM. For the same compound, the TGI (K-562 leukemia) was 14.5 µM, the TGI (KM20L2 colon) was 37.5 µM and the TGI (LOX IMVI melanoma) was 18.1 µM. The TGI (LXFL 529 NSCLC) was greater than 100 µM, the TGI (M14 melanoma) was greater than 100 µM and the TGI (M19-MEL melanoma) was greater than 100 µM. The TGI (MALME-3M melanoma) was greater than 100 µM, the TGI (NCI-H226 lung) was greater than 100 µM and the TGI (NCI-H23 lung) was greater than 100 µM. For the same compound, the TGI (NCI-H522 lung) was greater than 100 µM, the TGI (OVCAR-3 ovarian) was 98.2 µM and the TGI (OVCAR-4 ovarian) was greater than 100 µM. For the same compound, the TGI (OVCAR-5 ovarian) was greater than 100 µM, the TGI (OVCAR-8 ovarian) was greater than 100 µM and the TGI (RPMI-8226 leukemia) was 24.2 µM. The TGI (RXF 393 renal) was greater than 100 µM, the TGI (RXF-631 renal) was greater than 100 µM and the TGI (SF-268 CNS) was greater than 100 µM. The TGI (SF-295 CNS) was greater than 100 µM, the TGI (SF-539 CNS) was greater than 100 µM and the TGI (SK-MEL-2 melanoma) was 24.2 µM. For the same compound, the TGI (SK-MEL-28 melanoma) was greater than 100 µM, the TGI (SK-OV-3 ovarian) was greater than 100 µM and the TGI (SN12C renal) was greater than 100 µM. It also gave a TGI (SNB-19 CNS) greater than 100 µM, a TGI (SNB-75 CNS) greater than 100 µM and a TGI (SR leukemia) of 29.8 µM. For the same compound, the TGI (SW-620 colon) was greater than 100 µM, the TGI (TK-10 renal) was greater than 100 µM and the TGI (UACC-257 melanoma) was greater than 100 µM. It also gave a TGI (UACC-62 melanoma) greater than 100 µM and a TGI (XF 498 CNS) greater than 100 µM.

— PubChem BioAssay (NCI)
